The record followed here is patent publication US9029147B2, “Methods and compositions for enhanced differentiation from embryonic stem cells” (Massachusetts Institute of Technology, priority 2007, dated 2015).

Where “and” joins values, the source holds several entries; their conditions need not be identical. Equal values may be shown once.

Type in all cases: cell-based, mouse
In test [1] the test system is mES cells. As to the kind of experiment: Cardiomyocyte generation with 0 or 0.2 mM ascorbic acid, MF-20 immunostaining counted by flow cytometer. To be noted: 10 days. How it is done:
Low Oxygen and Ascorbic Acid Act Synergistically to Promote Cardiomyocyte Generation. mES cells were differentiated for 10 days at 142, 36, and 7 mmHg pO2 and with either 0 or 0.2 mM ascorbic acid. Cardiomyocyte generation was measured by counting fixed cells immunostained for sacromeric myosin heavy chain using the MF-20 with a flow cytometer. […] (FIGS. 10 and 11.).
(A flow cytometer gives signals particle by particle.)

The subject of the next test is J1 mES cells. Put plainly: Fraction of MF-20 positive cells (cardiomyocytes) by flow cytometry, alternate differentiation protocol. The source says:
(§1) • Undifferentiated ES cell culture. J1 and R1 ES cells were obtained from ATCC (SCRC 1010, SCRC 1036, Manassaas, Va.), expanded on Mitomycin-C treated MEF cells, and frozen into vials following ATCC protocols. Vials were thawed into undifferentiated ES cell maintenance medium (described in Table 1) containing supplemental leukaemia inhibitory factor (LIF) and plated at a density of about 5×10^4 cell/cm^2 on 25 cm^2 cell culture flasks (353109, Becton Dickinson, Franklin Lakes, N.J.) that were treated for 30 min with a sterile 0.1% (w/v) solution of gelatine (G-2500, Sigma-Aldrich, St. Louis, Mo.) in tissue culture water (WFI, 25-055-CM, Mediatech, Herndon, Va.). Medium (Table 1) was exchanged daily, and cells were detached with 0.25% trypsin (30-2101, ATCC) every two days. Split fractions were chosen so that cells were plated at approximately 1.2^[…] cells/cm^2. Cells were used for differentiation experiments 4-6 days after thawing the cell vials. • EB formation. […] The concentration of cells with intact membranes was determined using trypan blue cell counts, and cells were diluted to a concentration of 2.5×10^4 membrane-intact cells/ml. […] of this cell suspension were aliquoted onto the inside surface of the lids of 10×10 cm Petri dishes (351112, Becton Dickinson) using an 8-channel pipette. The lids were inverted and placed onto the bottoms of the dishes, which were filled with 15 ml of a pre-warmed (37° C.) solution containing 75% (v/v) Dulbecco's phosphate buffered saline (DPBS, 21-030-CM, Mediatech), 25% water, and 0.002% (w/v) gelatine. • EB transfer. […], the resulting EBs were manually pipetted off of the Petri dish lid using wide-orifice pipette tips (3532, Molecular BioProducts, San Diego, Calif.) and placed into the wells of custom-made 24-well culture dish, which had the plastic bottom replaced with fibronectin-coated silicone rubber membrane. 30 EBs were placed into each well, and the medium was mixed by pipetting to distribute the EBs uniformly across the plate bottom. • Culture of attached EBs. The EBs attached and spread within one day of transfer to the silicone rubber membrane-based dish. The medium was removed from all of the wells 2 days after EB transfer and was replaced with 1 ml of fresh ES cell differentiation medium. On the following day, the medium was removed and replaced with 1 ml serum-free differentiation medium (Table 2). Medium continued to be exchanged daily with the serum-free differentiation medium until the end of the experiment. • Cell collection for nuclei counting and flow cytometry. […]

Another test relates to R1 ES cells. Described as above. Particulars: With 0.2 mM ascorbic acid.
Excerpt: as §1

In test [2] the test system is mES cells. As to the kind of experiment: Adhesion of mES cells to polystyrene and silicone rubber, native or with adsorbed gelatin or fibronectin. To be noted: after a day in culture. As to the method: FIG. 23. Adhesion of ES cells to polystyrene and silicone rubber. Adhesion of mES cells to polystyrene and silicone rubber in their native states or with 0.1% gelatin in water or […] fibronectin in PBS adsorbed onto the surface for 24 hr prior to cell addition. Below each pair of micrographs is quantitative data for the total, attached, and suspension cell numbers. Results shown are mean±SD for three wells in a 24 well plate seeded with 2×10^5 cell 26 hr prior to performing the cell counts.
PSS solution (polyanion) was added to an untreated plate and incubated for 1 hr, followed by a 10 min wash with DPBS, a 1 hr incubation with PEI (polycation), and a 10 min wash with DPBS. Two additional incubations with both PSS and PEI (30 min each) with intervening washes (10 min) were done to build a (PSS-PEI)3 PEM. To this PEM an additional 3 layers each of type B gelatin (polyanion) and PDL (polycation) were formed, using 30 min incubations with the polyelectrolyte solution, and 10 min washes with DPBS. The final PEM structure was thus (PSS-PEI)3-(type B gelatin—PDL)3. […] Attached nuclei were counted by adding 0.5 ml of lysis solution to the well and incubating for 10 min. […] The membrane-intact cell concentration was determined using trypan blue cell counts, and cells were diluted to a concentration of 25,000 membrane intact cells/ml. […]

As to `O=C1O[C@H]([C@@H](O)CO)C(O)=C1O` [Ascorbic Acid, L-ascorbic acid], the “Effect on cardiomyocyte generation in combination with low pO2” value in the test with mES cells [1] (0.2 mM combined with 36 mmHg pO2) is listed as “a larger increase in cardiomyocytes than with either method alone”. For the same molecule, the “Effect on cardiomyocyte generation” value in the test with mES cells [1] (0.2 mM vs 0 mM, at all pO2 (142, 36, 7 mmHg)) was “increased cardiomyocyte generation”. Also, the “Fraction of MF-20 positive cells” value is 18 and 25 and 16 with J1 mES cells (With 0.2 mM ascorbic acid, pO2gas 36, J1, 4 days hanging drop EBs then 7 days serum free ITS medium); 4 in the test on R1 ES cells (pO2gas 7, 4 days hanging drop EBs then 7 days serum free ITS medium); 22 with R1 ES cells (pO2gas 36, 4 days hanging drop EBs then 7 days serum free ITS medium). For the same molecule, the “Change in fraction of cardiomyocytes when ascorbic acid was included in the culture medium” value in the test with J1 mES cells (all of the oxygen conditions tested, P=0.0005, J1 and R1 experiments of Table 4) was “highly significant increase”.

With “fibronectin: protein adsorbed onto silicone rubber to promote cell adhesion (F1141, Sigma-Aldrich)”, in the test on mES cells [2], the “Fraction of cells attached” value is on record as 99%.
